Assay results from PubChem BioAssay (NCI).
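Briefly, cells in 96-well plates were exposed to five compound concentrations for 48 h, and endpoints were estimated by linear interpolation. GI50: concentration for 50% inhibition of growth. TGI marks complete inhibition of growth.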

Key:
Experiment in all cases: growth of human tumour cells (NCI), 48 h
SNB-19 CNS = tested on: SNB-19 CNS
NCI-H522 lung = tested on: NCI-H522 lung
NCI-H226 lung = tested on: NCI-H226 lung
HCT-15 colon = tested on: HCT-15 colon
LOX IMVI melanoma = tested on: LOX IMVI melanoma
M14 melanoma = tested on: M14 melanoma
A498 renal = tested on: A498 renal
SF-268 CNS = tested on: SF-268 CNS
NCI-H460 lung = tested on: NCI-H460 lung
RPMI-8226 leukemia = tested on: RPMI-8226 leukemia
SN12C renal = tested on: SN12C renal
HL-60(TB) leukemia = tested on: HL-60(TB) leukemia
OVCAR-8 ovarian = tested on: OVCAR-8 ovarian
UACC-62 melanoma = tested on: UACC-62 melanoma
HS 578T breast = tested on: HS 578T breast
DU-145 prostate = tested on: DU-145 prostate
PC-3 prostate = tested on: PC-3 prostate
HOP-92 NSCLC = tested on: HOP-92 NSCLC
SW-620 colon = tested on: SW-620 colon
NCI/ADR-RES ovarian = tested on: NCI/ADR-RES ovarian
UO-31 renal = tested on: UO-31 renal
HCC-2998 colon = tested on: HCC-2998 colon
COLO 205 colon = tested on: COLO 205 colon
SK-MEL-28 melanoma = tested on: SK-MEL-28 melanoma
KM12 colon = tested on: KM12 colon
SR leukemia = tested on: SR leukemia
SK-MEL-5 melanoma = tested on: SK-MEL-5 melanoma
HCT-116 colon = tested on: HCT-116 colon
MDA-MB-435 = tested on: MDA-MB-435
MCF7 breast = tested on: MCF7 breast
HT29 colon = tested on: HT29 colon
HOP-62 NSCLC = tested on: HOP-62 NSCLC
U251 CNS = tested on: U251 CNS
MDA-MB-231 breast = tested on: MDA-MB-231 breast
OVCAR-5 ovarian = tested on: OVCAR-5 ovarian
MOLT-4 leukemia = tested on: MOLT-4 leukemia
NCI-H23 lung = tested on: NCI-H23 lung
BT-549 breast = tested on: BT-549 breast
T-47D breast = tested on: T-47D breast
SNB-75 CNS = tested on: SNB-75 CNS
UACC-257 melanoma = tested on: UACC-257 melanoma
CAKI-1 renal = tested on: CAKI-1 renal
SF-539 CNS = tested on: SF-539 CNS
RXF 393 renal = tested on: RXF 393 renal
ACHN renal = tested on: ACHN renal
TK-10 renal = tested on: TK-10 renal
786-0 renal = tested on: 786-0 renal
OVCAR-4 ovarian = tested on: OVCAR-4 ovarian
A549 NSCLC = tested on: A549 NSCLC
SK-MEL-2 melanoma = tested on: SK-MEL-2 melanoma
SK-OV-3 ovarian = tested on: SK-OV-3 ovarian
K-562 leukemia = tested on: K-562 leukemia
IGROV1 ovarian = tested on: IGROV1 ovarian
MALME-3M melanoma = tested on: MALME-3M melanoma
CCRF-CEM leukemia = tested on: CCRF-CEM leukemia
OVCAR-3 ovarian = tested on: OVCAR-3 ovarian

COc1cc(CSc2nc3ccc(Cl)cc3c(=O)n2Cc2ccccc2)cc(OC)c1OC
GI50 (SNB-19 CNS): 5.46 µM | TGI (SNB-19 CNS): > 100 µM | GI50 (NCI-H522 lung): 0.652 µM | TGI (NCI-H522 lung): 4.54 µM | GI50 (NCI-H226 lung): 12.3 µM | TGI (NCI-H226 lung): > 100 µM | GI50 (HCT-15 colon): 1.46 µM | TGI (HCT-15 colon): > 100 µM | GI50 (LOX IMVI melanoma): 5.97 µM | TGI (LOX IMVI melanoma): > 100 µM | GI50 (M14 melanoma): 4.26 µM | TGI (M14 melanoma): > 100 µM | GI50 (A498 renal): 1.89 µM | TGI (A498 renal): 8.2 µM | GI50 (SF-268 CNS): 7.33 µM | TGI (SF-268 CNS): > 100 µM | GI50 (NCI-H460 lung): 3.33 µM | TGI (NCI-H460 lung): > 100 µM | GI50 (RPMI-8226 leukemia): 4.27 µM | TGI (RPMI-8226 leukemia): > 100 µM | GI50 (SN12C renal): 5.2 µM | TGI (SN12C renal): > 100 µM | GI50 (HL-60(TB) leukemia): 4.11 µM | TGI (HL-60(TB) leukemia): > 100 µM | GI50 (OVCAR-8 ovarian): 5.18 µM | TGI (OVCAR-8 ovarian): > 100 µM | GI50 (UACC-62 melanoma): 2.34 µM | TGI (UACC-62 melanoma): 25.2 µM | GI50 (HS 578T breast): 1.63 µM | TGI (HS 578T breast): 14.5 µM | GI50 (DU-145 prostate): 4.46 µM | TGI (DU-145 prostate): > 100 µM | GI50 (PC-3 prostate): 3.48 µM | TGI (PC-3 prostate): > 100 µM | GI50 (HOP-92 NSCLC): 1.93 µM | TGI (HOP-92 NSCLC): 9.16 µM | GI50 (SW-620 colon): 2.65 µM | TGI (SW-620 colon): > 100 µM | GI50 (NCI/ADR-RES ovarian): 2.77 µM | TGI (NCI/ADR-RES ovarian): > 100 µM | GI50 (UO-31 renal): 4.4 µM | TGI (UO-31 renal): > 100 µM | GI50 (HCC-2998 colon): 6.18 µM | TGI (HCC-2998 colon): > 100 µM | GI50 (COLO 205 colon): 1.56 µM | TGI (COLO 205 colon): 4.05 µM | GI50 (SK-MEL-28 melanoma): 3.05 µM | TGI (SK-MEL-28 melanoma): 43.9 µM | GI50 (KM12 colon): 2.9 µM | TGI (KM12 colon): > 100 µM | GI50 (SR leukemia): 0.59 µM | TGI (SR leukemia): 27.6 µM | GI50 (SK-MEL-5 melanoma): 2.41 µM | TGI (SK-MEL-5 melanoma): 17.1 µM | GI50 (HCT-116 colon): 3.72 µM | TGI (HCT-116 colon): > 100 µM | GI50 (MDA-MB-435): 0.406 µM | TGI (MDA-MB-435): 11.6 µM | GI50 (MCF7 breast): 1.34 µM | TGI (MCF7 breast): 45.5 µM | GI50 (HT29 colon): 3.32 µM | TGI (HT29 colon): > 100 µM | GI50 (HOP-62 NSCLC): 2.88 µM | TGI (HOP-62 NSCLC): 18.2 µM | GI50 (U251 CNS): 4.36 µM | TGI (U251 CNS): 35.7 µM | GI50 (MDA-MB-231 breast): 5.34 µM | TGI (MDA-MB-231 breast): > 100 µM | GI50 (OVCAR-5 ovarian): 7 µM | TGI (OVCAR-5 ovarian): > 100 µM | GI50 (MOLT-4 leukemia): 4.41 µM | TGI (MOLT-4 leukemia): > 100 µM | GI50 (NCI-H23 lung): 8.48 µM | TGI (NCI-H23 lung): > 100 µM | GI50 (BT-549 breast): 6.19 µM | TGI (BT-549 breast): 90.6 µM | GI50 (T-47D breast): 3.92 µM | TGI (T-47D breast): > 100 µM | GI50 (SNB-75 CNS): 1.15 µM | TGI (SNB-75 CNS): 4.09 µM | GI50 (UACC-257 melanoma): 8.47 µM | TGI (UACC-257 melanoma): > 100 µM | GI50 (CAKI-1 renal): 3.19 µM | TGI (CAKI-1 renal): > 100 µM | GI50 (SF-539 CNS): 2.57 µM | TGI (SF-539 CNS): 9.34 µM | GI50 (RXF 393 renal): 3.15 µM | TGI (RXF 393 renal): 13.4 µM | GI50 (ACHN renal): 4.23 µM | TGI (ACHN renal): 34.2 µM | GI50 (TK-10 renal): 10.3 µM | TGI (TK-10 renal): 51.8 µM | GI50 (786-0 renal): 7.62 µM | TGI (786-0 renal): 41.3 µM | GI50 (OVCAR-4 ovarian): 4.99 µM | TGI (OVCAR-4 ovarian): > 100 µM | GI50 (A549 NSCLC): 4.03 µM | TGI (A549 NSCLC): > 100 µM | GI50 (SK-MEL-2 melanoma): 6.57 µM | TGI (SK-MEL-2 melanoma): 59.4 µM | GI50 (SK-OV-3 ovarian): 3.23 µM | TGI (SK-OV-3 ovarian): 17.7 µM | GI50 (K-562 leukemia): 1.19 µM | TGI (K-562 leukemia): > 100 µM | GI50 (IGROV1 ovarian): 10.2 µM | TGI (IGROV1 ovarian): > 100 µM | GI50 (MALME-3M melanoma): 5.81 µM | TGI (MALME-3M melanoma): 39.1 µM | GI50 (CCRF-CEM leukemia): 3.6 µM | TGI (CCRF-CEM leukemia): > 100 µM | GI50 (OVCAR-3 ovarian): 3.2 µM | TGI (OVCAR-3 ovarian): 11.6 µM
